# Laboratory results from patent US10918728B2, “Compositions and methods for increasing efficiency of cardiac metabolism” (IMBRIA PHARMACEUTICALS, INC., priority 2017, dated 2021).
# Assay: Stability of CV-8972 in aqueous solution at different concentrations and pH
# Assay type: physicochemical
# Protocol: The stability of CV-8972 was analyzed. Aqueous samples containing CV-8972 at different concentrations and pH were incubated for various periods and analyzed.
# Form A of CV-8972 were analyzed for stability in aqueous solution. Aqueous samples containing CV-8972 at different concentrations and pH were incubated for various periods and analyzed.
compound,measurement,setting,value
COc1ccc(CN2CCN(CCOC(=O)c3cccnc3)CC2)c(OC)c1OC.Cl.O [289-MBA-15-A],Retention Time 5.6 (CV-8972 purity),"2 mg/mL pH 6 (Form B), 1 hrs, PH 6.9",95.1
same,Retention Time 5.6 (CV-8972 purity),"2 mg/mL pH 6 (Form B), 4 hrs, PH 6.8",92.45
same,Retention Time 5.6 (CV-8972 purity),"2 mg/mL pH 6 (Form B), 6 hrs, PH 6.8",90.65
same,Retention Time 5.6 (CV-8972 purity),"2 mg/mL pH 6 (Form B), 22 hrs, PH 6.7",89.15
same,Retention Time 5.6 (CV-8972 purity),"2 mg/mL pH 7 (Form B), 1 hrs, PH 6.6",95.46
same,Retention Time 5.6 (CV-8972 purity),"2 mg/mL pH 7 (Form B), 4 hrs, PH 6.5",93.92
same,Retention Time 5.6 (CV-8972 purity),"10 mg/mL pH 6 (Form B), 1 hrs, PH 6.1",94.81
same,Retention Time 5.6 (CV-8972 purity),"10 mg/mL pH 6 (Form B), 4 hrs, PH 6",94.69
same,Retention Time 5.6 (CV-8972 purity),"10 mg/mL pH 6 (Form B), 6 hrs, PH 5.9",94.39
same,Retention Time 5.6 (CV-8972 purity),"10 mg/mL pH 6 (Form B), 22 hrs, PH 5.9",93.93
same,Retention Time 5.6 (CV-8972 purity),"10 mg/mL pH 7 (Form B), 1 hrs, PH 7.4",86.18
same,Retention Time 5.6 (CV-8972 purity),"10 mg/mL pH 7 (Form B), 4 hrs, PH 7.4",82.36
same,Retention Time 5.6 (CV-8972 purity),"10 mg/mL pH 7 (Form B), 6 hrs, PH 7.3",79.37
COc1ccc(CN2CCN(CCOC(=O)c3cccnc3)CC2)c(OC)c1OC.Cl.O [276-MBA-172],Retention Time 5.6 (CV-8972 purity),"2 mg/mL pH 6 (Form A), 1 hrs, PH 6.1",97.22
same,Retention Time 5.6 (CV-8972 purity),"2 mg/mL pH 6 (Form A), 4 hrs, PH 6.1",97.01
same,Retention Time 5.6 (CV-8972 purity),"2 mg/mL pH 6 (Form A), 6 hrs, PH 6.1",96.51
same,Retention Time 5.6 (CV-8972 purity),"2 mg/mL pH 7 (Form A), 1 hrs, PH 6.8",95.06
same,Retention Time 5.6 (CV-8972 purity),"2 mg/mL pH 7 (Form A), 4 hrs, PH 6.7",93.7
same,Retention Time 5.6 (CV-8972 purity),"2 mg/mL pH 7 (Form A), 6 hrs, PH 6.7",92.12
same,Retention Time 5.6 (CV-8972 purity),"2 mg/mL pH 7 (Form A), 22 hrs, PH 6.8",91.07
same,Retention Time 5.6 (CV-8972 purity),"10 mg/mL pH 6 (Form A), 1 hrs, PH 6.8",93.43
same,Retention Time 5.6 (CV-8972 purity),"10 mg/mL pH 6 (Form A), 4 hrs, PH 6.8",91.82
same,Retention Time 5.6 (CV-8972 purity),"10 mg/mL pH 6 (Form A), 6 hrs, PH 6.7",91.8
same,Retention Time 5.6 (CV-8972 purity),"10 mg/mL pH 6 (Form A), 22 hrs, PH 6.7",89.66
same,Retention Time 5.6 (CV-8972 purity),"10 mg/mL pH 7 (Form A), 1 hrs, PH 7.2",89.05
same,Retention Time 5.6 (CV-8972 purity),"10 mg/mL pH 7 (Form A), 4 hrs, PH 7.1",86.8
same,Retention Time 5.6 (CV-8972 purity),"10 mg/mL pH 7 (Form A), 6 hrs, PH 7.1",84.79
